According to PMC9190099, “Menthol carbonates as potent antiparasitic agents: synthesis and in vitro studies along with computer-aided approaches” (BMC Complementary Medicine and Therapies, 2022):
Where two headings read alike, the source gives them in different places.

Legend:
in vitro = experiment: in vitro
Description: Then, 100 µL of cell suspension and 100 μL of each concentration of the compounds were placed in each well of 96-well tissue culture microplate, and plates were incubated again at 37 °C, 5% CO2. […] The reaction was stopped with 100 μL/well of DMSO and absorbance was recorded at 570 nm (Varioskan Flash, Thermo Scientific, Waltham, MA, USA). […] Each measurement was done in triplicate in two independent experiments.
To calculate the cytotoxicity, the percentages of mortality for each concentration tested were calculated according to Eq. 1:
1 %Mortality=100-ODexposedcells/ODnonexposedcellsx100
(§1) Then, these percentages of mortality were used to calculate the median lethal concentrations (LC50) by Probit analysis using Graphpad Prism 8 software. In the case of antiparasitic activity (L. braziliensis, T. cruzi and P. falciparum), the percentage in the reduction of parasites for each concentration tested was quantified using Eq. 2:
(§2) All experiments were performed in triplicate. Both cytotoxicity and antiparasitic activity were classified as high, moderate, or low, according to ranges previously established based on the own hit criteria.

[1] = test system: L. braziliensis intracellular amastigotes (HMOM/COL/88/UA301-EGFP); experiment: In vitro activity against L. braziliensis amastigotes in U-937 cells (flow cytometry); assay type: cell-based, Leishmania braziliensis; details: for Leishmanicidal activity IS (Index of Selectivity = LC50/EC50): LC50 U-937 / EC50 L. braziliensis; for EC50: intracellular amastigotes of L. braziliensis, 72 h, read-out: Leishmanicidal activity EC50 (median effective concentration); for Leishmanicidal activity class: L. braziliensis amastigotes
Description: (§3) Compounds were solubilized in DMSO (1 mg/mL, w/v).
One ml was dispensed into each well of a 24-well culture plate. After 72 h, cells were infected with promastigotes of L. braziliensis (HMOM/COL/88/UA301-EGFP) in a proportion of 15:1 (parasites per cell ratio). Plates were incubated at 34 °C, 5% CO2, and 3 h after non-internalized promastigotes were removed by washing twice with phosphate buffer (PBS). Plates were incubated again at 34 °C, 5% CO2, and 24 h later cells were washed with warm PBS and medium replaced. […] After 72 h, cells were removed using trypsin/EDTA solution and washed twice with PBS by centrifuging 10 min at 1100 rpm, 4 °C. […] The percentage of infected cells was calculated using dot plot analysis according to positive events for green fluorescence and then parasite load in these infected cells was calculated by histogram analysis according to the mean fluorescence intensity (MFI). Infected cells were used as control of infection (negative control) and infected cells exposed to Amphotericin B (AMB) were used as control of antileishmanial activity (positive control).
as §1
(§4) 2 %Parasitereduction=100ODorMFIexposedparasites/ODorMFIcontrolparasitesx100
as §2

[2] = test system: T. cruzi intracellular amastigotes (Tulahuen strain); experiment: In vitro activity for T. cruzi amastigotes in U-937 cells; assay type: cell-based, Trypanosoma cruzi; details: for Trypanocidal activity IS (Index of Selectivity = LC50/EC50): LC50 U-937 / EC50 T. cruzi; for EC50: Trypanosoma cruzi, TULAHUEN, U-937, intracellular amastigotes of T. cruzi, 72 h, read-out: Trypanocidal activity EC50 (median effective concentration)
Description: as §3
Plates were incubated at 37 °C, 5% CO2. After 72 h of incubation, cells were infected with 5:1 […] of Tulahuen strain (24 h of growing) per cell ratio. Plates were incubated at 37 °C, 5% CO2. After 24 h of incubation 100 μL of each compound concentration were added to each well and plates were incubated again at 37 °C, 5% CO2. After 72 h of incubation 100 μL of chlorophenol red-β-D-galactopyranoside (CPRG) at 100 µM and 0.1%, Nonidet P-40 was added, and after 3 h of incubation, absorbance was read at 570 nm (Varioskan, Thermo). Infected cells exposed to Benznidazole (BZN) were used as a control for trypanocidal activity (positive control) while infected and non-treated cells were used as a control for infection (negative control). Nonspecific absorbance was corrected as described above. Each measurement was done in triplicate in two independent experiments.
as §1, §4, §2

[3] = test system: P. falciparum (3D7 strain); experiment: In vitro antiplasmodial activity (pLDH); assay type: cell-based, Plasmodium falciparum; details: for Antiplasmodial activity IS (Index of Selectivity = LC50/EC50): LC50 U-937 / EC50 P. falciparum; for Antiplasmodial activity class: P. falciparum; for EC50: Plasmodium falciparum, P. falciparum 3D7, total forms, 48 h, read-out: Antiplasmodial activity EC50 (median effective concentration)
Description: Unsynchronized P. falciparum (3D7 strain) culture was adjusted to 0.5% parasitemia and 1% hematocrit in RPMI medium enriched with 3% lipid-rich bovine serum albumin-Albumax II. In each well of a 96-well tissue culture plate, 100 µl of parasite suspension and 100 µl of each dilution of the compounds were added. Plates were incubated for 48 h at 37 °C, 90% N2, 5% CO2, 5% O2. After incubation, supernatants were harvested and parasites were subjected to three 20–minute freeze–thaw cycles. In a second flat–bottomed 96-well microtiter plate were dispensed 100 µL of Malstat reagent, pH 9.0, 25 µL of NBT/PES solution, and 15 µL of lysed parasites. Plates were incubated in the dark at 37 °C for 90 min and color development of the pLDH reaction was read at 650 nm (Varioskan, Thermo). […] Nonspecific absorbance was corrected by subtracting optical density (OD) of the blank. […]. Each measurement was done in triplicate in two independent experiments.
as §1, §2

[4] = test system: murine model of alveolar echinococcosis; parameters: method as in PMID 32101761; details: listed as menthol-pentanol prodrug; cited from earlier work
[5] = test system: Echinococcus multilocularis protoscoleces; parameters: method as in PMID 32101761; details: E. multilocularis protoscoleces, in vitro; cited from earlier work
[6] = test system: Leishmania amazonensis promastigotes; parameters: method as in earlier work; details: ref 53 (Silva et al. 2017), read-out: EC50 against Leishmania amazonensis promastigotes; cited from earlier work
L. branziliensis = test system: L. branziliensis; parameters: method as in PMID 28509873; details: previous studies; read-out: EC50 reported for L. branziliensis; cited from earlier work
[7] = Leishmania braziliensis, U-937, 72 h

| SMILES | CC50 at 72 h (in vitro) [µM] | Leishmanicidal activity IS (Index of Selectivity = LC50/EC50) [1] | EC50 ([1]; Leishmania braziliensis, U-937) [µM] | Trypanocidal activity IS (Index of Selectivity = LC50/EC50) [2] | EC50 [2] [µM] | Antiplasmodial activity IS (Index of Selectivity = LC50/EC50) [3] | Antiplasmodial activity class [3] | EC50 [3] [µM] | EC50 [1, 7] [µM] | Leishmanicidal activity class [1] | EC50 [1] [µM] | clinical efficacy [4] | protoscolicidal effect [5] | Trypanocidal activity class ([2]; T. cruzi amastigotes) | EC50 [6] [µM] | EC50 (L. branziliensis) [µM] |
| --- | --- | --- | --- | --- | --- | --- | --- | --- | --- | --- | --- | --- | --- | --- | --- | --- |
| C[C@@H]1[C@H](O)[C@@H](C)/C=C/C=C/C=C/C=C/C=C/C=C/C=C/[C@H](O[C@@H]2O[C@H](C)[C@@H](O)[C@H](N)[C@@H]2O)C[C@@H]2O[C@](O)(C[C@@H](O)C[C@@H](O)[C@H](O)CC[C@@H](O)C[C@@H](O)CC(=O)O[C@H]1C)C[C@H](O)[C@H]2C(=O)O [AMB, Amphotericin B, reference compound] | 53.9 ± 7.4 | 134.8 | 0.4 ± 0.1 |  |  |  |  |  |  |  |  |  |  |  |  |  |
| O=C(Cn1ccnc1[N+](=O)[O-])NCc1ccccc1 [BNZ, Benznidazole, reference compound] | > 768 |  |  | 12.8 | 60.1 ± 12.2 |  |  |  |  |  |  |  |  |  |  |  |
| COC(=O)OC1CC(C)CCC1C(C)C (centres unmarked) [Compound 1, Metyl(2-Isopropyl-5-methylcyclohexanol)carbonate] | 68.5 ± 6.7 | 3.0 |  | 0.6 | 105 ± 34.5 | 0.5 | low (low activity (EC50 > 100 μM)) | 127 ± 9.9 | 22.9 ± 2.8 |  |  |  |  |  |  |  |
| CCOC(=O)OC1CC(C)CCC1C(C)C (centres unmarked) [Compound 2, Etyl(2-Isopropyl-5-methylcyclohexanol)carbonate] | 103 ± 35.8 | 3.6 |  | 3.1 | 33.8 ± 4.3 | 3.6 | high (high (EC50 < 50 μM)) | 28.4 ± 0.4 | 28.4 ± 0.4 |  |  |  |  |  |  |  |
| CCCOC(=O)OC1CC(C)CCC1C(C)C (centres unmarked) [Compound 3, Propyl(2-Isopropyl-5-methylcyclohexanol)carbonate] | 57 ± 14.4 | 1.8 |  | 1.7 | 33.8 | 0.9 |  | 60.7 ± 1.2 | 31.8 ± 4.1 |  |  |  |  |  |  |  |
| CC1CCC(C(C)C)C(OC(=O)OC(C)C)C1 (centres unmarked) [Compound 4, Isopropyl(2-Isopropyl-5-methylcyclohexanol)carbonate] | 145 ± 74.5 | 3.4 |  | 0.1 | 2060 ± 175 | 2.4 |  | 60.7 ± 1 | 43.2 ± 0.3 |  |  |  |  |  |  |  |
| CCCCOC(=O)OC1CC(C)CCC1C(C)C (centres unmarked) [Compound 5, Butyl(2-Isopropyl-5-methylcyclohexanol)carbonate] | 207 ± 38.2 | 3.5 |  | 1.7 | 122 ± 21.4 | 3.7 |  | 56.3 ± 1 | 53.3 | moderate (moderate (EC50 > 50 μM < 100 μM)) | 59.3 ± 1.4 |  |  |  |  |  |
| CCCCCOC(=O)OC1CC(C)CCC1C(C)C (centres unmarked) [Compound 6, Pentyl(2-Isopropyl-5-methylcyclohexanol)carbonate] |  |  |  | 7.4 | 29.6 ± 1.2 |  |  |  | 96.7 ± 0.6 | moderate (moderate (EC50 > 50 μM < 100 μM)) |  | clinical efficacy similar to Albendazole | greater protoscolicidal effect than menthol |  |  |  |
| CCCCCCOC(=O)OC1CC(C)CCC1C(C)C (centres unmarked) [Compound 7, Hexyl(2-Isopropyl-5-methylcyclohexanol)carbonate] | 73.3 ± 15.8 | 2.6 |  | 1.6 | 46.3 ± 4.9 | 0.2 | low (low activity (EC50 > 100 μM)) | 432 ± 239 | 28.2 ± 1.1 |  |  |  |  |  |  |  |
| CCCCCCCOC(=O)OC1CC(C)CCC1C(C)C (centres unmarked) [Compound 8, Heptyl(2-Isopropyl-5-methylcyclohexanol)carbonate] | 48.4 ± 6.1 |  |  | 1.8 | 27.6 ± 4.4 | 0.7 |  | 67.4 ± 5.8 | > 23.5 |  |  |  |  |  |  |  |
| CCCCCCCCOC(=O)OC1CC(C)CCC1C(C)C (centres unmarked) [Compound 9, Octyl(2-Isopropyl-5-methylcyclohexanol)carbonate] | 44.1 ± 3.8 | 0.1 |  | 1.7 | 26.7 ± 4.6 | 0.7 |  | 62.4 ± 6.5 | 463 ± 206 |  |  |  |  |  |  |  |
| COc1cccc2c1C(=O)c1c(O)c3c(c(O)c1C2=O)C[C@@](O)(C(=O)CO)C[C@@H]3O[C@H]1C[C@H](N)[C@H](O)[C@H](C)O1 [DOXO, Doxorubicin, reference compound] | 1.7 ± 0.2 |  |  |  |  |  |  |  |  |  |  |  |  |  |  |  |
| CC1CCC(C(C)C)C(O)C1 (centres unmarked) [Menthol, 2-Isopropyl-5-methylcyclohexanol] | 266 ± 188 |  |  | 1.5 | 173 ± 28.9 | 0.7 |  | 358 ± 51 | > 128 |  |  |  |  | low (low activity (EC50 > 100 μM)) | 1270 |  |
| C=CCc1ccc(O)c(OC)c1 [eugenol] |  |  |  |  |  |  |  |  |  |  |  |  |  |  | 505 | 60.4 |
